We go through three compounds from ChEMBL document CHEMBL1159006, “Anti-HIV and cytotoxic alkaloids from Buchenavia capitata” (J Nat Prod, 1992).

The source made the active and inactive calls. The calls are words filed in the database; no cut-off is given here. A value given as a limit tells only on which side of the number the result lay.

Usually IC50 stands for the concentration that inhibits the measured activity by half. Lower therefore signals inhibition by little substance. As a reminder, the EC50 is the concentration that produces a half-maximal response. A high value points to weaker potency.

In experiment [1] the test system is Escherichia coli. The experiment in a line: DNA damaging activity against Escherichia coli K12 at 1 mg/ml by SOS chromotest agar spot test. The experiment is classed as functional, organism-based.
For experiment [2], the system named is Human immunodeficiency virus 1. The experiment in a line: Antiviral activity against HIV1 RF in human MT2 cells. The experiment is classed as functional, organism-based.
Experiment [3] in a line: Cytotoxicity against human melanoma cells after 48 hrs by SRB assay. The experiment is classed as functional. The settings on record: Melanoma cell, read-out: LC50 (the source's name). Background: The SRB assay estimates cell density from bound dye.
Experiment [4] deals with Human immunodeficiency virus 2. The experiment in a line: Inhibition of HIV2 reverse transcriptase.
Experiment [5] addresses Protease (Human immunodeficiency virus 1) (UniProt Q9YQ12). Briefly: Inhibition of HIV1 protease expressed in Escherichia coli by immunoblotting. In general terms: Immunoblotting shows a protein as a band on a membrane.
The subject of the next experiment is CEM-SS. The experiment in a line: Cytotoxicity against human CEM-SS cells. The experiment is classed as cell-based.
The test system of experiment [6] is Human immunodeficiency virus 2. The experiment in a line: Antiviral activity against HIV2 NIH-DZ assessed as cytoprotection. The experiment is classed as functional, organism-based.
Experiment [7] deals with Human immunodeficiency virus 1. Briefly: Antiviral activity against HIV1 3B in human H9 cells. It is filed as functional, organism-based.
For experiment [8], the target named is Human immunodeficiency virus type 1 reverse transcriptase (Human immunodeficiency virus 1) (UniProt Q72547). The experiment in a line: Inhibition of HIV1 reverse transcriptase.
Experiment [9] relates to Escherichia coli. The experiment in a line: DNA damaging activity against Escherichia coli BR513 containing lysogenic lambda-lacZ fusion phage at 1 mg/ml by biochemical prophage induction assay. It is filed as functional, organism-based.
In experiment [10] the test system is Human immunodeficiency virus 1. Briefly: Antiviral activity against HIV1 in human C8166 cells. It is filed as functional, organism-based.
Experiment [11] concerns Human immunodeficiency virus 1. Briefly: Antiviral activity against HIV1 in human CEM-SS cells after 6 days. The experiment is classed as functional, organism-based.

Protease (Human immunodeficiency virus 1), sequence (Q9YQ12 as listed by the source): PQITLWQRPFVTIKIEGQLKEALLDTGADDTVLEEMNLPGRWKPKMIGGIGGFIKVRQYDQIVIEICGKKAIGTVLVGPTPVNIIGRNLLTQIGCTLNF

For the compound `CN1CCCCC1c1c(O)cc(O)c2c(=O)cc(-c3ccccc3)oc12` (stereo not given), the outcome (in the experiment with Escherichia coli [1]; in experiment [2]; in experiment [4]; in [5]; in [6]; in experiment [7]) was inactive. Also, the outcome (in [8]; with Escherichia coli [9]; in experiment [10]) was inactive. For the same compound, in experiment [3], the CC50 stood at 0.1 µM. The same compound showed a half-inhibitory concentration (IC50) in the experiment on CEM-SS of 0.66 µM.
Consider `O=c1cc(-c2ccccc2)oc2c(C3CCCCN3)c(O)cc(O)c12` (stereo not given), for which the IC50 in the experiment with CEM-SS was found to be 142 µM. Moreover, the EC50 in experiment [11] (Human immunodeficiency virus 1, CEM-SS, 144 h) was found to be 142 µM.
`COc1cc(O)c(C2CCCCN2C)c2oc(-c3ccccc3)cc(=O)c12` (stereo not given) [BUCHENAVIANINE]: in the experiment on CEM-SS, inhibition was half-maximal at 5.7 µM (IC50). The compound also came in with an Activity in experiment [11] of less than 50%.
